Our source for the MIC values is patent US20250099357A1, “ANT[…] WITH BETA CARBOLINE ALKALOID AND PHENOLIC ACID AND CO[…]” (Conopco, Inc., d/b/a UNILEVER, priority 2021, published 2025).

Structures are written as SMILES.

The subject of assay [1] is Enterobacter gergoviae ATCC 33028. As to the kind of experiment: Liquid broth assay (MIC and checkerboard) against Enterobacter gergoviae. Format: cell-based. The settings on record: Pluralibacter gergoviae, ATCC33028, component by itself, 30° C., 24 hours, OD600, <25% growth vs control, read-out: minimal inhibitory concentration (MIC). An excerpt: (§1) Naturally derived antimicrobial systems were made, as shown below by combining the beta carboline alkaloid and phenolic acid. Two pools were set up and each pool contained 1 organism. The strains involved were Enterobacter gergoviae ATCC 33028 of the family Pluralibacter gergoviae, a Gram-negative and Aspergillus brasiliensis ATCC 16404. The FIC test range was 16 times greater than the projected MIC for each sample.
(§2) The differing behaviors of inhibitory antimicrobials in isolation and mixtures have been widely explored using the concept of the Fractional Concentration and Fractional Inhibitory Concentration (FIC). See for instance JRW Lambert and R Lambert, J. Appl. Microbiol 95, 734 (2003); T. Jadavji, CG Prober and R Cheung, Antibacterial Agents and Chemotherapy 26, 91 (1984), and WO 2004/006876. MIC is the minimum inhibitory concentration a component prevents visible growth of a microbe. The FC and FIC parameters can be defined as follows: […]
(§3) Liquid broth assays (MIC and checkerboard) were conducted to identify the minimum concentration(s) of individual and binary combinations of natural preservation materials. […] Each of the two-preservation chemical/broth mixes was then combined in a third 96 well plate at varying concentrations and then inoculated with 1-5x106 microorganisms and incubated at 30° C. for 24 hours, after which optical densities at OD600 nm were measured.

Assay [2] relates to Aspergillus brasiliensis ATCC 16404. As to the kind of experiment: Liquid broth assay (MIC and checkerboard) against Aspergillus brasiliensis. In kind it is cell-based. To be noted: ATCC16404, component by itself, 30° C., 24 hours, OD600, <25% growth vs control.
Source text: as §1, §2, §3

Take `COc1cc(C(=O)O)cc(OC)c1O` [Syringic Acid, 4-Hydroxy-3,5-dimethoxybenzoic acid]: the MIC in assay [1] and in assay [2] was greater than 50 mg/mL in each case.
